In PMC9288506, “Compounds activating VCP D1 ATPase enhance both autophagic and proteasomal neurotoxic protein clearance” (Nature Communications, 2022) one finds Kd data, which are given here for two compounds.

For the experiment, the target named is T1, VCP (p97, Valosin-containing protein) (Homo sapiens, UniProt P55072).
T1 construct: Full-length VCP (6xHis-tag)
In words: SPR. Format: binding.

T1 sequence (P55072 2-806): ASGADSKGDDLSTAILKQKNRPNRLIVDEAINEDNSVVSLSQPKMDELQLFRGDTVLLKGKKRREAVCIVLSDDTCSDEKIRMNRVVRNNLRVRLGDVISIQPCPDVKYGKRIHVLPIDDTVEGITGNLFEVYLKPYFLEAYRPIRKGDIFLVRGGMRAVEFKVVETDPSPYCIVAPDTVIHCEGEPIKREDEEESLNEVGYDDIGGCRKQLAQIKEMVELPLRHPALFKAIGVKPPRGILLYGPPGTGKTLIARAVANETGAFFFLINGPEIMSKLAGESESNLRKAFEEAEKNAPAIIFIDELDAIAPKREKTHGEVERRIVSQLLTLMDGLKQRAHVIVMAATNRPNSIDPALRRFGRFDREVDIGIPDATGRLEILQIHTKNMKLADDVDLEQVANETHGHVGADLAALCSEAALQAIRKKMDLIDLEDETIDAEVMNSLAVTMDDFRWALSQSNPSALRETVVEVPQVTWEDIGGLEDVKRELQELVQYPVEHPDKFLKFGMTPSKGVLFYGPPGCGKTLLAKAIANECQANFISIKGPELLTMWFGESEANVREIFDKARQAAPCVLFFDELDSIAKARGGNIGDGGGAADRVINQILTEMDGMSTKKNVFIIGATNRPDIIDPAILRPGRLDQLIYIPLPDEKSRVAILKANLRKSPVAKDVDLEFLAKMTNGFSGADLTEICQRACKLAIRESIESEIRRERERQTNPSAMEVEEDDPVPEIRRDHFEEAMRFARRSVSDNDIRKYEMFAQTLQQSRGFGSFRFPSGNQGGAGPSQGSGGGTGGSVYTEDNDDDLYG

The Kd is the concentration at which binding is half-saturated. The low end stands for a tighter complex, the high end for a looser complex. `Nc1ncnc2c1ncn2[C@@H]1O[C@H](COP(=O)(O)OP(=O)(O)O)[C@@H](O)[C@H]1O` [ADP] returned a Kd of approximately 800 nM.
The same measure for `COc1cccc2c(NCc3ccccc3)nc(-n3c(N)nc4ccccc43)nc12` [ML240]: 230 ± 30 nM.
